Target: T1, AmnC (2-aminomuconic 6-semialdehyde dehydrogenase) (Pseudomonas sp., UniProt Q9KWS5, DEL124-138/DEL477-491)
T1 sequence (Q9KWS5 1-476 DEL124-138): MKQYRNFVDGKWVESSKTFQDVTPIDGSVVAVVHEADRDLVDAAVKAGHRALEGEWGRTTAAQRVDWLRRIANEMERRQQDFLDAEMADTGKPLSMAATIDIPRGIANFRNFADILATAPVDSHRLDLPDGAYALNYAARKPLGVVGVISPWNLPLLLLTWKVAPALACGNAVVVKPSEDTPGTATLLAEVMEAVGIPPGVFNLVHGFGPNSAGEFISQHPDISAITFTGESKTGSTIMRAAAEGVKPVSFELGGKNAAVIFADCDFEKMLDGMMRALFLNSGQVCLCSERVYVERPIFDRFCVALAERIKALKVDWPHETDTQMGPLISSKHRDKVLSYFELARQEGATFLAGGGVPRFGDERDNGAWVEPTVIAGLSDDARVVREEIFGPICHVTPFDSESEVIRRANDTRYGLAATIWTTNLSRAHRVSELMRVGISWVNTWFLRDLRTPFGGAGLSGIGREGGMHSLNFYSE
Assay: microscale thermophoresis
Format: binding

SMILES: NC(=O)c1ccc[n+]([C@@H]2O[C@H](COP(=O)(O)OP(=O)(O)OC[C@H]3O[C@@H](n4cnc5c(N)ncnc54)[C@H](O)[C@@H]3O)[C@@H](O)[C@H]2O)c1 [NAD^+]
- Kd: 3 ± 0.3 mM

Reference: paper doi:10.1101/2021.07.15.452591v1 (biorxiv, 2021)
